From PubChem BioAssay AID248 (DTP/NCI, 2004)
Inconclusive results and toxic doses are left out. Cut-off read from the data, not from the text of the source: active = T/C of 150% or more; inactive = T/C below 125%.

Test system: L1210 leukemia ip in BDF1 mice, survival T/C
Experiment: NCI In Vivo Anticancer Drug Screen. Data for tumor model L1210 Leukemia (intraperitoneal) in B6D2F1 (BDF1) mice
Conditions: endpoint: mean survival time, higher = longer survival
Method in brief: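 Survival endpoint. Drug-treated group vs vehicle group, expressed as T divided by C. Tumor passaged by transplantation.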

[1] = dose: 100.0 mg/kg/injection, schedule: Q04DX003 (ip), vehicle: acetone
[2] = dose: 200.0 mg/kg/injection, schedule: Q04DX003 (ip), vehicle: acetone
[3] = dose: 100.0 mg/kg/injection, schedule: Q01DX001 (ip), vehicle: saline with Tween-80
[4] = dose: 200.0 mg/kg/injection, schedule: Q01DX001 (ip), vehicle: saline with Tween-80
[5] = dose: 400.0 mg/kg/injection, schedule: Q01DX001 (ip), vehicle: saline with Tween-80
[6] = dose: 100.0 mg/kg/injection, schedule: Q04DX003 (ip), vehicle: saline with Tween-80
[7] = dose: 200.0 mg/kg/injection, schedule: Q04DX003 (ip), vehicle: saline with Tween-80
[8] = dose: 400.0 mg/kg/injection, schedule: Q04DX003 (ip), vehicle: saline with Tween-80
[9] = dose: 100.0 mg/kg/injection, schedule: Q04DX003 (ip), vehicle: Klucel (hydroxypropylcellulose) (HPC)
[10] = dose: 200.0 mg/kg/injection, schedule: Q01DX009 (ip), vehicle: Klucel (hydroxypropylcellulose) (HPC)
[11] = dose: 200.0 mg/kg/injection, schedule: Q04DX003 (ip), vehicle: Klucel (hydroxypropylcellulose) (HPC)
[12] = dose: 400.0 mg/kg/injection, schedule: Q01DX009 (ip), vehicle: Klucel (hydroxypropylcellulose) (HPC)
[13] = dose: 400.0 mg/kg/injection, schedule: Q04DX003 (ip), vehicle: Klucel (hydroxypropylcellulose) (HPC)
[14] = dose: 100.0 mg/kg/injection, schedule: Q01DX009 (ip), vehicle: Klucel (hydroxypropylcellulose) (HPC)
[15] = dose: 100.0 mg/kg/injection, schedule: Q01DX001 (ip), vehicle: Klucel (hydroxypropylcellulose) (HPC)
[16] = dose: 200.0 mg/kg/injection, schedule: Q01DX001 (ip), vehicle: Klucel (hydroxypropylcellulose) (HPC)
[17] = dose: 400.0 mg/kg/injection, schedule: Q01DX001 (ip), vehicle: Klucel (hydroxypropylcellulose) (HPC)

Measured: T/C

COCCNP(=O)(OC)OC
inactive: dose: 50.0 mg/kg/injection, schedule: Q01DX009 (ip), vehicle: acetone 100 % of control | dose: 50.0 mg/kg/injection, schedule: Q04DX003 (ip), vehicle: acetone 96 % of control | dose: 100.0 mg/kg/injection, schedule: Q01DX001 (ip), vehicle: acetone 110 % of control | dose: 100.0 mg/kg/injection, schedule: Q01DX009 (ip), vehicle: acetone 108 % of control | [1] 101 % of control | dose: 200.0 mg/kg/injection, schedule: Q01DX001 (ip), vehicle: acetone 102 % of control | dose: 200.0 mg/kg/injection, schedule: Q01DX009 (ip), vehicle: acetone 97 % of control | [2] 111 % of control

O=C1C(c2ccc(Br)cc2)=C(c2ccccc2)c2c(-c3ccccc3)cc(Br)c(-c3ccccc3)c21
inactive: [3] 90 % of control | [4] 90 % of control | [5] 87 % of control

CN(C)c1ccc(C=NCCN=Cc2ccc(N(C)C)cc2)cc1
inactive: [6] 98 % of control | [7] 106 % of control | [8] 95 % of control

N#CC1=C(N)CCCC1
inactive: [6] 104 % of control

CCOC(=O)CN1CC(=O)OC(C(Cl)(Cl)Cl)C1 (stereo not drawn)
inactive: [6] 98 % of control | [7] 90 % of control | [8] 93 % of control

COC1(OC)CCP(=S)(c2ccccc2)CC1C#N (stereo not drawn)
inactive: [6] 100 % of control | [7] 101 % of control | [8] 92 % of control

O=c1[nH]cc(CN(CCO)CCO)c(=O)[nH]1
inactive: dose: 100.0 mg/kg/injection, schedule: Q01DX Z (ip), vehicle: saline 101 % of control | dose: 200.0 mg/kg/injection, schedule: Q01DX Z (ip), vehicle: saline 103 % of control

COc1ccc(C(O)c2ccccn2)cc1 (stereo not drawn)
inactive: [6] 90 % of control | [7] 98 % of control | [8] 95 % of control

CCCCCCC(/C=C/C=C/c1ccccc1)=N\O
inactive: [9] 96 % of control | [10] 91 % of control | [11] 90 % of control | [12] 91 % of control | [13] 98 % of control

COc1ccc([N+](=O)[O-])cc1NC(=O)COc1cc(Cl)c(Cl)cc1Cl
inactive: [14] 94 % of control | [10] 108 % of control | [12] 94 % of control

CC(=O)Nc1ccc(C#N)c2ccccc12
inactive: [14] 97 % of control | [9] 102 % of control | [10] 98 % of control | [11] 102 % of control | [12] 103 % of control | [13] 97 % of control

CCC(CO)NC(=O)/C=C/c1ccccc1Cl (stereo not drawn)
inactive: [3] 95 % of control | [4] 100 % of control | [5] 92 % of control

Nc1c(Cl)cc(Cl)c(-c2c(Cl)cc(Cl)c([N+](=O)[O-])c2Cl)c1Cl
inactive: [15] 106 % of control | [16] 101 % of control | [17] 95 % of control

CSCSCC(N)C(=O)O (stereo not drawn)
inactive: dose: 100.0 mg/kg/injection, schedule: Q01DX001 (ip), vehicle: saline 94 % of control | dose: 150.0 mg/kg/injection, schedule: Q04DX003 (ip), vehicle: saline 100 % of control | dose: 200.0 mg/kg/injection, schedule: Q01DX001 (ip), vehicle: saline 100 % of control | dose: 300.0 mg/kg/injection, schedule: Q04DX003 (ip), vehicle: saline 94 % of control | dose: 400.0 mg/kg/injection, schedule: Q01DX001 (ip), vehicle: saline 100 % of control | dose: 600.0 mg/kg/injection, schedule: Q04DX003 (ip), vehicle: saline 97 % of control

O=C(NC(=O)c1ccc(Cl)cc1)Nc1ccc(Cl)cc1C(F)(F)F
inactive: dose: 50.0 mg/kg/injection, schedule: Q01DX009 (ip), vehicle: saline with Tween-80 98 % of control | dose: 100.0 mg/kg/injection, schedule: Q01DX009 (ip), vehicle: saline with Tween-80 103 % of control | dose: 200.0 mg/kg/injection, schedule: Q01DX009 (ip), vehicle: saline with Tween-80 98 % of control

Clc1ccc(CN2COc3c(ccc4cccnc34)C2)cc1Cl
inactive: dose: 100.0 mg/kg/injection, schedule: Q04DX003 (ip), vehicle: saline sonified 105 % of control | dose: 200.0 mg/kg/injection, schedule: Q04DX003 (ip), vehicle: saline sonified 94 % of control | dose: 400.0 mg/kg/injection, schedule: Q04DX003 (ip), vehicle: saline sonified 100 % of control

CCOC(=O)C(CO)(CC(CO)(C(C)=O)C(=O)OCC)C(C)=O (stereo not drawn)
inactive: dose: 222.0 mg/kg/injection, schedule: Q01DX Z (ip), vehicle: methylcellulose (MC) 98 % of control | dose: 333.0 mg/kg/injection, schedule: Q01DX Z (ip), vehicle: methylcellulose (MC) 110 % of control | dose: 500.0 mg/kg/injection, schedule: Q01DX Z (ip), vehicle: methylcellulose (MC) 108 % of control

O=[N+]([O-])c1cnccc1/C=C\c1ccccc1
inactive: [15] 86 % of control | [16] 105 % of control | [17] 94 % of control

O=[N+]([O-])c1ccc(C(Cl)C2(Br)C=c3ccccc3=C2)cc1 (stereo not drawn)
inactive: [14] 103 % of control | [9] 105 % of control | [10] 98 % of control | [11] 94 % of control | [12] 95 % of control | [13] 97 % of control

C=CCOc1c(Cl)c(Cl)c(Cl)c(Cl)c1Cl
inactive: dose: 100.0 mg/kg/injection, schedule: Q01DX009 (ip), vehicle: saline sonified 96 % of control | [9] 96 % of control | dose: 200.0 mg/kg/injection, schedule: Q01DX009 (ip), vehicle: saline sonified 91 % of control | [11] 96 % of control | dose: 400.0 mg/kg/injection, schedule: Q01DX009 (ip), vehicle: saline sonified 97 % of control | [13] 96 % of control

COc1ccc2nc(C)oc2c1
inactive: [1] 97 % of control | [2] 95 % of control | dose: 400.0 mg/kg/injection, schedule: Q04DX003 (ip), vehicle: acetone 97 % of control

O=[N+]([O-])c1cccc(C=Nc2ccccc2F)c1
inactive: [14] 94 % of control | [10] 98 % of control | [12] 98 % of control

CCCc1c(O)ccc(C)c1C
inactive: dose: 100.0 mg/kg/injection, schedule: Q01DX001 (ip), vehicle: other 91 % of control | dose: 200.0 mg/kg/injection, schedule: Q01DX001 (ip), vehicle: other 103 % of control

N#CC(NC(=O)NCCCl)c1ccccc1 (stereo not drawn)
inactive: [9] 104 % of control | [11] 101 % of control

CN(N=O)C(=O)NCCCl
inactive: dose: 0.36 mg/kg/injection, schedule: Q01DX Z (ip), vehicle: carboxymethylcellulose (CMC) 104 % of control | dose: 0.78 mg/kg/injection, schedule: Q01DX Z (ip), vehicle: carboxymethylcellulose (CMC) 95 % of control | dose: 1.56 mg/kg/injection, schedule: Q01DX Z (ip), vehicle: carboxymethylcellulose (CMC) 98 % of control | dose: 3.12 mg/kg/injection, schedule: Q01DX Z (ip), vehicle: carboxymethylcellulose (CMC) 102 % of control | dose: 6.25 mg/kg/injection, schedule: Q01DX Z (ip), vehicle: carboxymethylcellulose (CMC) 102 % of control | dose: 12.5 mg/kg/injection, schedule: Q01DX001 (ip), vehicle: Klucel (hydroxypropylcellulose) (HPC) 103 % of control | dose: 12.5 mg/kg/injection, schedule: Q01DX Z (ip), vehicle: carboxymethylcellulose (CMC) 101 % of control | dose: 25.0 mg/kg/injection, schedule: Q01DX001 (ip), vehicle: Klucel (hydroxypropylcellulose) (HPC) 103 % of control | dose: 25.0 mg/kg/injection, schedule: Q01DX Z (ip), vehicle: carboxymethylcellulose (CMC) 104 % of control | dose: 75.0 mg/kg/injection, schedule: Q01DX Z (ip), vehicle: carboxymethylcellulose (CMC) 119 % of control | [16] 118 % of control

COc1ccc(OC)c(CC(Cl)(C#N)C#N)c1
inactive: dose: 12.0 mg/kg/injection, schedule: Q01DX009 (ip), vehicle: Klucel (hydroxypropylcellulose) (HPC) 100 % of control | dose: 25.0 mg/kg/injection, schedule: Q01DX009 (ip), vehicle: Klucel (hydroxypropylcellulose) (HPC) 102 % of control | dose: 50.0 mg/kg/injection, schedule: Q01DX009 (ip), vehicle: Klucel (hydroxypropylcellulose) (HPC) 102 % of control | [11] 105 % of control

COc1ccc(C=NC(C)(C)CO)c(OC)c1
inactive: dose: 75.0 mg/kg/injection, schedule: Q01DX001 (ip), vehicle: saline 96 % of control | dose: 150.0 mg/kg/injection, schedule: Q01DX001 (ip), vehicle: saline 101 % of control
